Data reported in US20080176857A1, “4-Piperazinnylthieno[2,3-d]Pyrimidine Compounds as Platelet Aggregation Inhibitors” (priority 2005, published 2008).
Where “and” joins values, the source holds several entries; their conditions need not be identical. Equal entries are not always repeated.

Molecular target: P2Y12 receptor (Homo sapiens, UniProt Q9H244)
Experiment: [33P]-2MeS-ADP binding to recombinant human P2Y12 membranes (Assay 3)
Set-up: expressed in transfected cells; host or cells: HEK cells
Conditions: for IC50 / Ki: HEK cell membranes expressing human P2Y12, competition with 33P 2MeS-ADP; for inhibition at 10 µM / % Inhibition: 10 μM
Description: 3. Human P2Y12 Recombinant Cell Membrane Binding Assay with ^33P 2MeS-ADP.
The ability of a test compound to bind to the P2Y12 receptor was evaluated in a recombinant cell membrane binding assay. In this competitive binding assay, the test compound competed against a radiolabelled agonist for binding to the P2Y12 receptor, expressed on the cell membrane. Inhibition of binding of the labeled material was measured and correlated to the amount and potency of the test compound. Data from this assay are presented in Table F. This binding assay is a modification of the procedure in Takasaki, J. et. al, Mol. Pharmacol., 2001, Vol. 60, pg. 432.
HEK cells were transfected with the pDONR201P2Y12 vector and cultured in MEM with GlutaMAX I, Earle's salts, 25 mM HEPES (Gibco # 42360-032) containing 10% dialyzed FBS (Gibco # 26400-044), 100 μM nonessential amino acids (Gibco # 11140-050), 1 mM sodium pyruvate (Gibco # 11360-070), 0.05% geneticin (Gibco #10131-027), 3 μg/mL blasticidin (Fluka brand from Sigma # 15205), and 0.5 μg/mL puromycin (Sigma # P-8833).
Confluent cells were washed once with cold DPBS (Gibco # 14190-136). Fresh DPBS was added and the cells were scraped and centrifuged at 500×g for 5 minutes at 4° C. The cell pellets were resuspended in TEE buffer (25 mM Tris, 5 mM EDTA, 5 mM EGTA) containing 1 protease inhibitor cocktail tablet (Roche # 1 873 580) per 50 mL (called TEE+Complete) and can be flash frozen at this point.
In one embodiment, frozen cell pellets were used to prepare the membranes. In that embodiment, the frozen cell pellets were thawed on ice. In another embodiment, cell pellets may be used without flash freezing before moving on to the next step.
Cell pellets were resuspended in TEE buffer+Complete and homogenized in a glass dounce for 12 strokes. The cell suspension was centrifuged at 500×g for 5 minutes at 4° C. The supernatant was saved and centrifuged at 20,000×g for 20 minutes at 4° C. This supernatant was discarded and the cell pellet resuspended in TEE buffer+Complete and homogenized in a glass dounce for 12 strokes. This suspension was centrifuged at 20,000×g for 20 minutes at 4° C. and the supernatant discarded. The pellet was resuspended in assay buffer (50 mM Tris, 100 mM NaCl, 1 mM EDTA) containing one protease inhibitor cocktail tablet per 50 mL, and can be flash frozen as 1 mL aliquots at this point.
Dry compounds were diluted as 10 mM DMSO stocks and tested in a seven-point, three-fold dilution series run in triplicate beginning at 10 μM, final concentration. A 1 mM DMSO intermediate stock was made in a dilution plate and from this the seven dilutions were made to 5× the final concentration in assay buffer containing 0.02% BSA.
The plates were incubated at room temperature for 1 hour. The reaction was stopped using a cell harvester to transfer the reaction mixture onto GF/B UniFilter plates (Perkin Elmer # 6005177), and washed three times with wash buffer (50 mM Tris), filtering between each wash. The filter plates were dried for approximately 20 minutes in an oven at 50° C. Back seals were adhered to the filter plates and 25 uL of Microscint 20 scintillation fluid (Perkin Elmer # 6013621) were added. The filter plates were sealed, shaken for 30 minutes, and counted on a Top Count. Data were analyzed using a four-parameter curve fit with a fixed minimum and maximum experimentally defined as the average positive and negative controls on each plate, and with a hill slope equal to one.
The table below presents the IC50, Ki, and percent inhibition values for compounds tested in either washed human platelets membrane binding assay (assay #1 above) or recombinant cell membrane binding assay (Assay #3, above). Example number refers to the compound prepared as described in the example noted in the section Working Examples, above. The highest concentration of candidate compound tested is listed for each experimental run presented. […]

[1] = at highest concentration tested

P2Y12 receptor, sequence (Q9H244 whole entry): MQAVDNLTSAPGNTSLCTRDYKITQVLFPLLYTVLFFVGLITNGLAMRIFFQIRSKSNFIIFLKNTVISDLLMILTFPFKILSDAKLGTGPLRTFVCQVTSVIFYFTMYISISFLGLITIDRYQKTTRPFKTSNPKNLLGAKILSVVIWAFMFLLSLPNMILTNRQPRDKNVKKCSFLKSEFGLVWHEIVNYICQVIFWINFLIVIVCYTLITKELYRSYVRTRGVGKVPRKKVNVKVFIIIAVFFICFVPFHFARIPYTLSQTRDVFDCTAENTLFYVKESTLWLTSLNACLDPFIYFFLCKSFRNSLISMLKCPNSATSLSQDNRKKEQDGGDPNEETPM

SMILES	IC50	Ki	inhibition at 10 µM [1]	% Inhibition [1]	inhibition at 1 µM (at highest concentration tested, 1 μM)
CCc1cc2c(N3CCN(C(=O)CC(=O)OC)CC3)nc(SCC(=O)OC)nc2s1 [Example 44, Methyl 3-(4-{6-ethyl-2-[(2-methoxy-2-oxoethyl)thio]thieno[2,3-d]pyrimidin-4-yl}piperazin-1-yl)-3-oxopropanoate]	4030 nM	2690 nM	63.6%	–	–
CCc1cc2c(N3CCN(C(=O)Cc4ccccc4)CC3)nc(S(=O)(=O)CC(=O)OC)nc2s1 [Example 8, Methyl ({6-ethyl-4-[4-(phenylacetyl)piperazin-1-yl]thieno[2,3-d]pyrimidin-2-yl}sulfonyl)acetate]	1200 nM	720 nM and 680 nM	81.3%	81.44%	–
CCc1cc2c(N3CCN(C(=O)c4ccc(N(C)C)cc4)CC3)nc(SCC(=O)OC)nc2s1 [Example 54, Methyl [(4-{4-[4-(dimethylamino)benzoyl]piperazin-1-yl}-6-ethylthieno[2,3-d]pyrimidin-2-yl)thio]acetate]	6190 nM and 4440 nM	3560 nM and 2960 nM	47.8%	61.77%	–
CCc1cc2c(N3CCN(C(=O)c4ccc5[nH]ccc5c4)CC3)nc(SCC(=O)OC)nc2s1 [Example 62, Methyl ({6-ethyl-4-[4-(1H-indol-5-ylcarbonyl)piperazin-1-yl]thieno[2,3-d]pyrimidin-2-yl}thio)acetate]	5860 nM	3530 nM	50.9%	–	–
CCCCOc1ccc(C(=O)N2CCN(c3nc(SCC(=O)OC)nc4sc(CC)cc34)CC2)cc1 [Example 73, Methyl ({4-[4-(4-butoxybenzoyl)piperazin-1-yl]-6-ethylthieno[2,3-d]pyrimidin-2-yl}thio)acetate]	371 nM	230 nM	82%	–	–
CCc1cc2c(N3CCN(C(=O)c4cccc(-c5ccccc5)c4)CC3)nc(SCC(=O)OC)nc2s1 [Example 78, Methyl ({4-[4-(1,1′-biphenyl-3-ylcarbonyl)piperazin-1-yl]-6-ethylthieno[2,3-d]pyrimidin-2-yl}thio)acetate]	35 nM and 20 nM and 69 nM	20 nM and 10 nM and 40 nM	92.6%	87.73%	94%
CCc1cc2c(N3CCN(C(=O)c4ccc(-n5cccn5)cc4)CC3)nc(SCC(=O)OC)nc2s1 [Example 48, Methyl [(6-ethyl-4-{4-[4-(1H-pyrazol-1-yl)benzoyl]piperazin-1-yl}thieno[2,3-d]pyrimidin-2-yl)thio]acetate]	190 nM	130 nM	95.8%	–	–
CCOc1ccc(C(=O)N2CCN(c3nc(SCC(=O)OC)nc4sc(CC)cc34)CC2)cc1 [Example 57, Methyl ({4-[4-(4-ethoxybenzoyl)piperazin-1-yl]-6-ethylthieno[2,3-d]pyrimidin-2-yl}thio)acetate]	1050 nM	524 nM	80.8%	–	–
CCc1cc2c(N3CCN(C(=O)Cc4ccccc4)CC3)nc(SCCO)nc2s1 [Example 87, 2-({6-ethyl-4-[4-(phenylacetyl)piperazin-1-yl]thieno[2,3-d]pyrimidin-2-yl}thio)ethanol]	570 nM and 590 nM and 200 nM and 320 nM	310 nM and 337 nM and 110 nM and 180 nM	–	–	–
CCc1cc2c(N3CCN(C(=O)c4csc(-c5cccnc5)n4)CC3)nc(SCC(=O)OC)nc2s1 [Example 81, Methyl [(6-ethyl-4-{4-[(2-pyridin-3-yl-1,3-thiazol-4-yl)carbonyl]piperazin-1-yl}thieno[2,3-d]pyrimidin-2-yl)thio]acetate]	1720 nM	1070 nM	76.7%	–	–
CCc1cc2c(N3CCN(C(=O)Cc4ccccc4)CC3)nc(SCCc3ccncc3)nc2s1 [Example 26, 6-Ethyl-4-[4-(phenylacetyl)piperazin-1-yl]-2-[(2-pyridin-4-ylethyl)thio]thieno[2,3-d]pyrimidine]	800 nM	460 nM and 430 nM	88.7%	88.94%	–
CCc1cc2c(N3CCN(C(=O)Cc4ccccc4)CC3)nc(SC(C)C(=O)O)nc2s1 (stereo not drawn) [Example 25, 2-({6-Ethyl-4-[4-(phenylacetyl)piperazin-1-yl]thieno[2,3-d]pyrimidin-2-yl}thio)propanoic acid]	200 nM and 270 nM	110 nM and 150 nM	88.6%	94.08%	–
CCc1cc2c(N3CCN(C(=O)c4ccc(OC(F)(F)F)cc4)CC3)nc(SCC(=O)OC)nc2s1 [Example 49, Methyl [(6-ethyl-4-{4-[4-(trifluoromethoxy)benzoyl]piperazin-1-yl}thieno[2,3-d]pyrimidin-2-yl)thio]acetate]	5520 nM	3680 nM	56.8%	–	–
CCc1cc2c(N3CCN(C(=O)Cc4ccccc4)CC3)nc(SCCC(=O)OC)nc2s1 [Example 82, methyl 3-({6-ethyl-4-[4-(phenylacetyl)piperazin-1-yl]thieno[2,3-d]pyrimidin-2-yl}thio)propanoate]	390 nM and 1170 nM and 220 nM and 270 nM and 400 nM	212 nM and 667 nM and 120 nM and 150 nM and 230 nM	92.7%	86.00% and 93.95% and 94.10% and 89.55%	–
CCc1cc2c(N3CCN(C(=O)Cc4ccccc4)CC3)nc(SCCCCO)nc2s1 [Example 84, 4-({6-ethyl-4-[4-(phenylacetyl)piperazin-1-yl]thieno[2,3-d]pyrimidin-2-yl}thio)butan-1-ol]	580 nM and 1440 nM and 220 nM and 270 nM and 520 nM	315 nM and 825 nM and 130 nM and 150 nM and 300 nM	–	90.62% and 71.83% and 92.13% and 94.46% and 90.58%	–
CCc1cc2c(N3CCN(C(=O)Cc4ccccc4)CC3)nc(SC[C@H](N)C(=O)OC)nc2s1 [Example 16, Methyl S-{6-ethyl-4-[4-(phenylacetyl)piperazin-1-yl]thieno[2,3-d]pyrimidin-2-yl}-L-cysteinate]	270 nM and 360 nM	150 nM and 210 nM	88.7%	87.82%	–
CCc1cc2c(N3CCN(C(=O)c4cc(N(C)C)nc(N(C)C)n4)CC3)nc(SCC(=O)OC)nc2s1 [Example 72, Methyl {[4-(4-{[2,6-bis(dimethylamino)pyrimidin-4-yl]carbonyl}piperazin-1-yl)-6-ethylthieno[2,3-d]pyrimidin-2-yl]thio}acetate]	681 nM	423 nM	88.7%	–	–
CCc1cc2c(N3CCN(C(=O)c4ccc5cc[nH]c5c4)CC3)nc(SCC(=O)OC)nc2s1 [Example 63, Methyl ({6-ethyl-4-[4-(1H-indol-6-ylcarbonyl)piperazin-1-yl]thieno[2,3-d]pyrimidin-2-yl}thio)acetate]	1880 nM	1130 nM	68.1%	–	–
CCc1cc2c(N3CCN(C(=O)c4ccc5ccoc5c4)CC3)nc(SCC(=O)OC)nc2s1 [Example 65, Methyl ({4-[4-(1-benzofuran-6-ylcarbonyl)piperazin-1-yl]-6-ethylthieno[2,3-d]pyrimidin-2-yl}thio)acetate]	620 nM	370 nM	81%	–	–
CCc1cc2c(N3CCN(C(=O)Cc4ccccc4)CC3)nc(SCC(O)CO)nc2s1 (stereo not drawn) [Example 12, 3-({6-Ethyl-4-[4-(phenylacetyl)piperazin-1-yl]thieno[2,3-d]pyrimidin-2-yl}thio)propane-1,2-diol]	340 nM and 370 nM	200 nM and 210 nM	83.4%	92.83%	–
CCc1cc2c(N3CCN(C(=O)c4cccc(C#N)c4)CC3)nc(SCC(=O)OC)nc2s1 [Example 64, Methyl ({4-[4-(3-cyanobenzoyl)piperazin-1-yl]-6-ethylthieno[2,3-d]pyrimidin-2-yl}thio)acetate]	157 nM and 417 nM and 330 nM	94 nM and 252 nM and 212 nM	91.3%	81.22% and 90.29%	–
